#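 Five compound concentrations were applied to cells in 96-well plates for 48 hours; endpoints were derived by simple linear interpolation of the resulting dose-response curve. GI50 marks 50% less growth.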 Calls of active or inactive are those of the source. Cut-off read from the data, not from the text of the source: active = GI50 up to about 1.1 µM and inactive = higher.
# Assays:
# Experiment in all cases: inhibition of tumour cell growth, NCI panel, 48 h
# 786-0 = tested on: 786-0
# ACHN = tested on: ACHN
# CAKI-1 = tested on: CAKI-1
# COLO 205 = tested on: COLO 205
# HT-29 = tested on: HT-29
# IGROV-1 = tested on: IGROV-1
# KM12 = tested on: KM12
# MDA-N = tested on: MDA-N
# MOLT-4 = tested on: MOLT-4
# NCI-H226 = tested on: NCI-H226
# SF-295 = tested on: SF-295
# SK-MEL-28 = tested on: SK-MEL-28
# SK-MEL-2 = tested on: SK-MEL-2
# SK-MEL-5 = tested on: SK-MEL-5
# SK-OV-3 = tested on: SK-OV-3
# SN12C = tested on: SN12C
# SW-620 = tested on: SW-620
# UACC-62 = tested on: UACC-62
# HL-60 = tested on: HL-60
# SF-539 = tested on: SF-539
SMILES,GI50 (786-0),GI50 (ACHN),GI50 (CAKI-1),GI50 (COLO 205),GI50 (HT-29),GI50 (IGROV-1),GI50 (KM12),GI50 (MDA-N),GI50 (MOLT-4),GI50 (NCI-H226),GI50 (SF-295),GI50 (SK-MEL-28),GI50 (SK-MEL-2),GI50 (SK-MEL-5),GI50 (SK-OV-3),GI50 (SN12C),GI50 (SW-620),GI50 (UACC-62),GI50 (HL-60),GI50 (SF-539)
CCCCC/C=C1\CC(CO)(COC(=O)CC(C(C)C)C(C)C)OC1=O (stereo not drawn),12.1 µM (inactive),13 µM (inactive),9.42 µM (inactive),3.04 µM (inactive),19.9 µM (inactive),17.4 µM (inactive),11.4 µM (inactive),8.15 µM (inactive),15.2 µM (inactive),13.7 µM (inactive),5.52 µM (inactive),16.1 µM (inactive),20.3 µM (inactive),11 µM (inactive),19.1 µM (inactive),16.1 µM (inactive),29.3 µM (inactive),19.4 µM (inactive),–,–
Cc1cc(C)c2c(c1)C/C(=C\c1ccccc1C(=O)O)C2=O,> 100 µM (inactive),> 100 µM (inactive),> 100 µM (inactive),–,> 100 µM (inactive),> 100 µM (inactive),> 100 µM (inactive),> 100 µM (inactive),76.4 µM (inactive),56.9 µM (inactive),> 100 µM (inactive),> 100 µM (inactive),–,82.4 µM (inactive),–,> 100 µM (inactive),> 100 µM (inactive),–,> 100 µM (inactive),39.4 µM (inactive)
C[C@H](O)C1CC(Cn2nnc3c(N)ncnc32)C1(C)C (stereo partly drawn),> 100 µM (inactive),> 100 µM (inactive),> 100 µM (inactive),–,–,–,> 100 µM (inactive),> 100 µM (inactive),–,> 100 µM (inactive),> 100 µM (inactive),> 100 µM (inactive),> 100 µM (inactive),> 100 µM (inactive),> 100 µM (inactive),> 100 µM (inactive),> 100 µM (inactive),5.36 µM (inactive),–,> 100 µM (inactive)
COc1cc(/C=N\NC(=O)C[N+](C)(C)C)cc(OC)c1OC,> 10 µM (inactive),> 10 µM (inactive),> 10 µM (inactive),> 10 µM (inactive),> 10 µM (inactive),> 10 µM (inactive),> 10 µM (inactive),> 10 µM (inactive),> 10 µM (inactive),–,> 10 µM (inactive),> 10 µM (inactive),–,> 10 µM (inactive),> 10 µM (inactive),> 10 µM (inactive),> 10 µM (inactive),> 10 µM (inactive),> 10 µM (inactive),> 10 µM (inactive)
O=C1CC2C=CC(O)C(C1)C2 (stereo not drawn),> 100 µM (inactive),> 100 µM (inactive),–,> 100 µM (inactive),> 100 µM (inactive),> 100 µM (inactive),> 100 µM (inactive),> 100 µM (inactive),> 100 µM (inactive),37.4 µM (inactive),> 100 µM (inactive),> 100 µM (inactive),> 100 µM (inactive),–,> 100 µM (inactive),> 100 µM (inactive),> 100 µM (inactive),> 100 µM (inactive),> 100 µM (inactive),> 100 µM (inactive)
CN1CCN(C(=S)N(C(=O)c2cccs2)C2CCCCC2)CC1,> 100 µM (inactive),> 100 µM (inactive),–,> 100 µM (inactive),> 100 µM (inactive),> 100 µM (inactive),> 100 µM (inactive),> 100 µM (inactive),> 10 µM (inactive),> 100 µM (inactive),> 10 µM (inactive),> 100 µM (inactive),> 100 µM (inactive),> 100 µM (inactive),–,> 100 µM (inactive),> 100 µM (inactive),> 100 µM (inactive),24.8 µM (inactive),–
CCc1c[n+]([O-])c(C)cc1[N+](=O)[O-],97.1 µM (inactive),17.7 µM (inactive),40.4 µM (inactive),15.6 µM (inactive),82.8 µM (inactive),> 100 µM (inactive),45.4 µM (inactive),44.2 µM (inactive),> 100 µM (inactive),–,> 100 µM (inactive),> 100 µM (inactive),21 µM (inactive),> 100 µM (inactive),> 100 µM (inactive),53.7 µM (inactive),33.3 µM (inactive),49.9 µM (inactive),> 100 µM (inactive),> 100 µM (inactive)
C[C@H](NC(=O)c1ccc(CNC(=O)/C=C/c2cccc(Oc3ccccc3)c2)cc1)c1ccccc1,36.5 µM (inactive),57.9 µM (inactive),22.6 µM (inactive),> 100 µM (inactive),> 100 µM (inactive),> 100 µM (inactive),> 100 µM (inactive),> 100 µM (inactive),93.3 µM (inactive),32.7 µM (inactive),40.8 µM (inactive),80.9 µM (inactive),> 100 µM (inactive),58.5 µM (inactive),> 100 µM (inactive),> 100 µM (inactive),> 100 µM (inactive),> 100 µM (inactive),–,27 µM (inactive)
CCOP(=O)(OCC)/C(C#N)=C/c1nccn1C,> 100 µM (inactive),> 100 µM (inactive),–,> 100 µM (inactive),> 100 µM (inactive),–,> 100 µM (inactive),> 100 µM (inactive),> 100 µM (inactive),> 100 µM (inactive),> 100 µM (inactive),> 100 µM (inactive),> 100 µM (inactive),–,–,> 100 µM (inactive),> 100 µM (inactive),–,> 100 µM (inactive),> 100 µM (inactive)
CCCCCCCCCCCCCCCCS(=O)(=O)c1ccc(NN)cc1,> 10 µM (inactive),> 10 µM (inactive),> 10 µM (inactive),> 10 µM (inactive),> 10 µM (inactive),> 10 µM (inactive),> 10 µM (inactive),> 10 µM (inactive),6.43 µM (inactive),–,> 10 µM (inactive),> 10 µM (inactive),> 10 µM (inactive),> 10 µM (inactive),> 10 µM (inactive),> 10 µM (inactive),> 10 µM (inactive),> 10 µM (inactive),1.5 µM (inactive),7.43 µM (inactive)
COc1ccc(/C=N/n2c(C)n[nH]c2=O)cc1,> 100 µM (inactive),> 100 µM (inactive),> 100 µM (inactive),> 100 µM (inactive),> 100 µM (inactive),–,> 100 µM (inactive),> 100 µM (inactive),> 100 µM (inactive),> 100 µM (inactive),> 100 µM (inactive),> 100 µM (inactive),> 100 µM (inactive),–,> 100 µM (inactive),> 100 µM (inactive),> 100 µM (inactive),> 100 µM (inactive),–,> 100 µM (inactive)
CC1=C/C(=N\OCC(=O)O)CC(c2ccc(C(C)C)cc2)C1 (stereo not drawn),65.8 µM (inactive),–,> 100 µM (inactive),76.7 µM (inactive),16.6 µM (inactive),> 100 µM (inactive),48.5 µM (inactive),34.5 µM (inactive),16.3 µM (inactive),–,39.8 µM (inactive),–,99.1 µM (inactive),17.5 µM (inactive),> 100 µM (inactive),60.1 µM (inactive),34.3 µM (inactive),33.7 µM (inactive),26.5 µM (inactive),93.1 µM (inactive)
CN(C)/C=N/CCN1CCOCC1,> 100 µM (inactive),> 100 µM (inactive),–,> 100 µM (inactive),> 100 µM (inactive),> 100 µM (inactive),–,> 100 µM (inactive),> 100 µM (inactive),> 100 µM (inactive),> 100 µM (inactive),57.3 µM (inactive),> 100 µM (inactive),> 100 µM (inactive),> 100 µM (inactive),> 100 µM (inactive),–,> 100 µM (inactive),> 100 µM (inactive),> 100 µM (inactive)
CCOC(=O)Oc1cc2c(c(OC)c1OC)-c1ccc(SC)c(=O)cc1C(NC(=O)C(F)(F)F)CC2 (stereo not drawn),0.0017 µM (active),0.00224 µM (active),0.0147 µM (active),0.0577 µM (active),< 0.001 µM (active),0.0022 µM (active),0.00258 µM (active),< 0.001 µM (active),0.00117 µM (active),0.00106 µM (active),< 0.001 µM (active),< 0.001 µM (active),–,< 0.001 µM (active),< 0.001 µM (active),0.00199 µM (active),< 0.001 µM (active),0.00108 µM (active),< 0.001 µM (active),–
O=C1c2c(O)cccc2Cc2cc(CO)cc(O)c21,3.21 µM (inactive),2.94 µM (inactive),–,1.87 µM (inactive),3.48 µM (inactive),4.03 µM (inactive),–,2.74 µM (inactive),2.96 µM (inactive),5.36 µM (inactive),1.52 µM (inactive),3.96 µM (inactive),–,1.69 µM (inactive),3.19 µM (inactive),3.38 µM (inactive),4.06 µM (inactive),2.09 µM (inactive),0.684 µM (active),–
Clc1ccc2c(NCCNC3CCCCC3)ccnc2c1,5.47 µM (inactive),12.5 µM (inactive),5.41 µM (inactive),1.36 µM (inactive),3.15 µM (inactive),11.8 µM (inactive),6.28 µM (inactive),2.29 µM (inactive),3.48 µM (inactive),10.6 µM (inactive),3.34 µM (inactive),1.86 µM (inactive),3.22 µM (inactive),1.62 µM (inactive),13.9 µM (inactive),16.2 µM (inactive),12.2 µM (inactive),4.28 µM (inactive),2.42 µM (inactive),–
